Results: patent publication US20230077199A1, “PALMITOYL TETRAPEPTIDE-20 CONJUGATED NANOSILVER PARTICLE AND USE THEREOF” (priority 2021, published 2023)

Tested on: B16F10 cells
Experiment: Measurement of melanin production
Assay type: cell-based, murine
Settings: B16F10, 200 nM, single treatment
Description: B16F10 are seeded in 24-well plates at the density of 8×10^4 cells/well and incubated for 24 hours at 37° C. with 5% CO2 atmosphere. After removing the used cell medium, the cells are treated with fresh cell culture medium (control group), 200 nM α-MSH (α-MSH group), combination of 200 nM α-MSH and various concentrations of palmitoyl tetrapeptide-20 conjugated nanosilver particle (α-MSH+sample group), and various concentrations of palmitoyl tetrapeptide-20 conjugated nanosilver particle (sample group), for 24 hours. After treatment, the treated solution in the well is removed with further incubation with fresh cell culture medium for 24 hours.
The cells are washed twice with PBS. The cells are transferred into a 1.5 mL microtube and centrifuged at 10,000 rpm for 5 minutes to obtain cell pellets. Add 100 μL of solution (1 N NaOH containing 10% DMSO) to the pellet for 60 minutes at 80° C. to dissolve intracellular melanin. Extract 80 μL of dissolved melanin and place in 96-well plates, and melanin contents of control group and treatment group are determined by measuring the absorbance at 405 nm. The assay is repeated for three independent experiments. The equation for calculating melanin content is described as following: Total melanin content (%)=(A405 nm treatment group/A405 nm control group)×100%.

Substance: α-melanocyte stimulating hormone [α-MSH]
- induction of melanin synthesis: effectively induce melanin synthesis
